This is an account of results in patent US12214058B2, “Imaging methods using deuterated compounds” (Genentech, Inc., priority 2014, dated 2025).

Series [1] can be described thus: Dynamic microPET imaging in mice. It counts as in vivo, mice (C57BL/6). Here is the method:
MicroPET Imaging The PET imaging was performed on Inveon PET/CT scanner (Siemens Medical Solutions USA Inc.). Animals anesthetized with sevoflurane were placed head-first, prone position on the scanner bed and dynamic 45 min scans were initiated. Approximately 3.7 MBq of ^18F-radiolabeled tracer in isotonic solution (100-130 μL) was administered as 60 second intravenous infusion via the tail vein. Body temperature was measured by a rectal probe and maintained with warm air flow at 37° C. Full-body iterative image reconstructions were obtained using maximum a posteriori algorithm (MAP, hyperparameter β 0.05) and corrected for signal attenuation using the tissue density obtained from CT. Projections were created with PMOD 3.305 (PMOD Technologies, Ltd., Zurich, Switzerland) and used to obtain quantitative activity levels in each organ of interest using region-of-interest analysis.

The subject of series [2] is tau (NFTs) in human brain tissues. The experiment in a line: Autoradiography on postmortem human brain tissues. It counts as binding. The method, then: Autoradiography The tracer [^18F][A] or [^18F][A]-d2 was dissolved in PBS containing 5% DMSO and 5% ethanol at final concentration 40 μCi/mL. Then 0.5 ml of stock solution was transferred to a microscope slide with 5 μm thick freshly dried section of a tissue and incubated for 90 min at room temperature. The slides were washed by dipping into following solutions: PBS for 1 min, 70% ethanol 2 min, 30% ethanol 2 min and PBS 1 min. The samples were dried at room temperature for 30 min and exposed to phosphorimager plate for 20 h. The exposed plates were scanned at 25 μm resolution.
Autoradiographic evaluation of [^18F][A] and [^18F][A]-d2 was performed using brain tissues collected postmortem from human donors. […] The positive staining was found in grey matter of tissues containing high level of NFTs and high AD-amyloid characterized as Braak score 5. […] The NFT and Aβ-amyloid burden was measured by standard immunohistochemical methods.

Series [3] can be described thus: Microsomal stability assay, rhesus liver microsomes. It counts as in vitro ADME. The method, then: Microsomal stability assays The tracer [^18F][A]-d2 or [^18F][A] was dissolved in potassium phosphate (Kpi) buffer (100 mM) at concentration 500-600 μCi/mL. The non-radioactive 7 and 10 were dissolved in Kpi buffer at 10 μM concentration. The reaction vessel was charged with human or mouse liver microsome suspension (12.5 μL, 20 mg/mL) followed by Kpi buffer (388 μL, 10 mM), NADPH (50 μL, 10 mM) and incubated at 37° C. for 5-10 min. A solution of the radioactive [^18F][A]-d2 or [^18F][A] (50 μL, […]) or non-radioactive 7 or 8 (50 μL, 10 μM) were added to the reaction vessel and the mixture was incubated at 37° C. Aliquots (50 μL) of the reaction mixture were taken at 5, 15 and 45 minutes post addition of the tested compound, mixed with ice-cold acetonitrile (100 μL) and centrifuged. The supernatant was analyzed by LCMS (System E). The radiolabeled tracers [^18F][A] and [^18F][A]-d2 (n=3) were incubated with human, rhesus or mouse liver microsome suspension with or without NADPH at 37° C. and the mixture was analyzed for a presence of radioactive metabolites at 5, 15 and 45 min. In the presence of mouse and rhesus liver microsomes, both the [^18F][A] and [^18F][A]-d2 metabolized rapidly to ^18F-fluoride (retention time (rt)=0.38 min), and two radioactive metabolites M2 and M1 (rt=1.2 and 1.4 min). […]

Structures are written as SMILES.

On to `[2H]C([2H])([18F])CC1CCN(c2ccn3c(n2)nc2ccccc23)CC1` [[^18F][A]-d2, 1,1-dideutero-2-(1-(benzo[4,5]imidazo[1,2-a]pyrimidine-2-yl)piperidin-4-yl)-1-[^18F]fluoroethane], for which, in series [1] (in vivo PET), the “reduction in bone uptake versus [18F][A]” value is recorded as approximately 54%. Further, the “uptake in liver and kidneys, comparison of the two tracers” value in series [1] (n=6) is “indistinguishable”. This compound also showed a bone uptake in series [1] (n=6, 30-45 min post tracer injection) of 14.3±1.7 % ID/g. Further, the “peak uptake in brain” value in series [1] (n=6, i.v., dynamic PET) is 7.4±2.2 % ID/g. For the same compound, the “staining of negative control tissues” value in series [2] (high or moderate amyloid burden but no NFTs, Braak score 3 or 2) is “not positively stained”. For the same compound, the autoradiographic binding pattern entry in series [2] (human brain tissues, positive staining in grey matter with high NFTs, Braak score 5) was “tau specific binding patterns”. In series [3], the “stability of parent compound compared with mouse liver microsomes” value was “slightly more stable”.
